# Read-outs that look alike come from different tables or passages of the source. Square brackets hold non-standard residues; d marks the D form. Peptide text beside a SMILES is read from it. Nspe = C[C@H](NCC(=O)O)c1ccccc1; Nlys = NCCCCNCC(=O)O
# How the values were obtained:
# C. auris CBS12373 = test: Broth microdilution MIC; type: cell-based, Candida auris; conditions: CBS 12 373
# A. baumannii 006 = conditions: A. baumannii 006
# In short: (§1)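 Broth microdilution with 5 × 10^5 CFU/ml inoculum in cation-adjusted Mueller–Hinton broth for antibiotics or MHB for peptidomimetics; 16–20 h at 37°C, 120 rpm. MBC/MFC by plating on Trypticase Soya Agar with phosphatidylcholine and Tween 80; geometric mean MIC calculated across pathogens.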
# [1] = test system: Enteroc. faecalis NCTC 13 379; conditions: Enteroc. faecalis NCTC 13 379
# In short: as §1
# A. baumannii 007 = conditions: A. baumannii 007
# In short: as §1
# P. aeruginosa 216 = conditions: P. aeruginosa 216
# In short: as §1
# K. pneumoniae JIE2713 = conditions: K. pneumoniae JIE2713
# In short: as §1
# S. aureus 38 = conditions: S. aureus 38
# In short: as §1
# E. coli 005 = conditions: E. coli 005
# In short: as §1
# A. baumannii ATCC 19 606 = conditions: A. baumannii ATCC 19 606
# In short: as §1
# A. baumannii 005 = conditions: A. baumannii 005
# In short: as §1
# E. coli 0010 = conditions: E. coli 0010
# In short: as §1
# E. coli 0015 = conditions: E. coli 0015
# In short: as §1
# K. pneumoniae JIE2709 = conditions: K. pneumoniae JIE2709
# In short: as §1
# K. pneumoniae JIE4212 = conditions: K. pneumoniae JIE4212
# In short: as §1
# S. aureus 117 = conditions: S. aureus 117
# In short: as §1
# A. baumannii 008 = conditions: A. baumannii 008
# In short: as §1
# En. cloacae 003 = conditions: En. cloacae 003
# In short: as §1
# S. aureus 105 = conditions: S. aureus 105
# In short: as §1
# E. coli 0011 = conditions: E. coli 0011
# In short: as §1
# S. aureus 04 = conditions: S. aureus 004
# In short: as §1
# P. aeruginosa AR-1270 = conditions: P. aeruginosa AR-1270
# In short: as §1
# En. cloacae 005 = conditions: En. cloacae 005
# In short: as §1
# P. aeruginosa 33 = conditions: P. aeruginosa 33
# In short: as §1
# En. cloacae 001 = conditions: En. cloacae 001
# In short: as §1
# [2] = MHB (melimine/Mel4 with 0.2% BSA, 0.01% acetic acid), mean MIC
compound,measurement,setting,value
C[C@@H](c1ccccc1)N(CC(N)=O)C(=O)CN(CCCCN)C(=O)CN(C(=O)CN(C(=O)CN(CCCCN)C(=O)CN(C(=O)CN(C(=O)CN(CCCCN)C(=O)CN(C(=O)CN(C(=O)CNCCCCN)[C@@H](C)c1ccccc1)[C@@H](C)c1ccccc1)[C@@H](C)c1ccccc1)[C@@H](C)c1ccccc1)[C@@H](C)c1ccccc1)[C@@H](C)c1ccccc1 [TM6] (H-[Nlys][Nspe][Nspe][Nlys][Nspe][Nspe][Nlys][Nspe][Nspe][Nlys][Nspe]-NH2),MIC against C. auris,"C. auris CBS12373; RPMI 1640 with MOPS, 5 × 10^3 CFU ml^−1, ≥90% reduction (≥50% for fluconazole)",2 µg/mL
same,MIC against C. auris,C. auris CBS12373; value in brackets,1.2 µM
same,MIC of peptidomimetics,A. baumannii 006; [2],7.8 µg/mL
same,MIC of peptidomimetics,A. baumannii 006; value in brackets,4.7 µM
same,MIC of peptidomimetics,[1]; [2],31.25 µg/mL
same,MIC of peptidomimetics,[1]; value in brackets,18.8 µM
same,MIC of peptidomimetics,A. baumannii 007; [2],7.8 µg/mL
same,MIC of peptidomimetics,A. baumannii 007; value in brackets,4.7 µM
same,MIC of peptidomimetics,P. aeruginosa 216; [2],15.6 µg/mL
same,MIC of peptidomimetics,P. aeruginosa 216; value in brackets,9.4 µM
same,MIC of peptidomimetics,K. pneumoniae JIE2713; [2],62.5 µg/mL
same,MIC of peptidomimetics,K. pneumoniae JIE2713; value in brackets,37.7 µM
same,MIC of peptidomimetics,S. aureus 38; [2],7.8 µg/mL
same,MIC of peptidomimetics,S. aureus 38; value in brackets,4.7 µM
same,MIC of peptidomimetics,E. coli 005; [2],62.5 µg/mL
same,MIC of peptidomimetics,E. coli 005; value in brackets,37.7 µM
same,MIC of peptidomimetics,A. baumannii ATCC 19 606; [2],7.8 µg/mL
same,MIC of peptidomimetics,A. baumannii ATCC 19 606; value in brackets,4.7 µM
same,MIC of peptidomimetics,A. baumannii 005; [2],7.8 µg/mL
same,MIC of peptidomimetics,A. baumannii 005; value in brackets,4.7 µM
same,MIC of peptidomimetics,E. coli 0010; [2],62.5 µg/mL
same,MIC of peptidomimetics,E. coli 0010; value in brackets,37.7 µM
same,MIC of peptidomimetics,E. coli 0015; [2],62.5 µg/mL
same,MIC of peptidomimetics,E. coli 0015; value in brackets,37.7 µM
same,MIC of peptidomimetics,K. pneumoniae JIE2709; [2],31.3 µg/mL
same,MIC of peptidomimetics,K. pneumoniae JIE2709; value in brackets,18.8 µM
same,MIC of peptidomimetics,K. pneumoniae JIE4212; [2],15.6 µg/mL
same,MIC of peptidomimetics,K. pneumoniae JIE4212; value in brackets,9.4 µM
same,MIC of peptidomimetics,S. aureus 117; [2],7.8 µg/mL
same,MIC of peptidomimetics,S. aureus 117; value in brackets,4.7 µM
same,MIC of peptidomimetics,A. baumannii 008; [2],15.6 µg/mL
same,MIC of peptidomimetics,A. baumannii 008; value in brackets,9.4 µM
same,MIC of peptidomimetics,En. cloacae 003; [2],15.6 µg/mL
same,MIC of peptidomimetics,En. cloacae 003; value in brackets,9.4 µM
same,MIC of peptidomimetics,S. aureus 105; [2],7.8 µg/mL
same,MIC of peptidomimetics,S. aureus 105; value in brackets,4.7 µM
same,MIC of peptidomimetics,E. coli 0011; [2],15.6 µg/mL
same,MIC of peptidomimetics,E. coli 0011; value in brackets,9.4 µM
same,MIC of peptidomimetics,S. aureus 04; [2],7.8 µg/mL
same,MIC of peptidomimetics,S. aureus 04; value in brackets,4.7 µM
same,MIC of peptidomimetics,P. aeruginosa AR-1270; [2],31.3 µg/mL
same,MIC of peptidomimetics,P. aeruginosa AR-1270; value in brackets,18.8 µM
same,MIC of peptidomimetics,En. cloacae 005; [2],15.6 µg/mL
same,MIC of peptidomimetics,En. cloacae 005; value in brackets,9.4 µM
same,MIC of peptidomimetics,P. aeruginosa 33; [2],31.3 µg/mL
same,MIC of peptidomimetics,P. aeruginosa 33; value in brackets,18.8 µM
same,MIC of peptidomimetics,En. cloacae 001; [2],15.6 µg/mL
same,MIC of peptidomimetics,En. cloacae 001; value in brackets,9.4 µM
